Assay results: patent US9579406B2, “Phospholipid ether analogs as agents for detecting and locating cancer, and methods thereof” (Cellectar, Inc., priority 2004, dated 2017)
“Also recorded” adds a separate entry of the source.

What was measured:
[1] = tested on: A549 (human non-small cell lung cancer); assay: Radiotherapy study in A549 SCID mouse xenograft model; assay type: in vivo
Description: Stimulated by these and other observations, the inventors recently conducted a small ^125I-NM404 pilot therapy study in SCID mice with human A549 lung tumor xenografts. ^125I-NM404 was administered as either a single dose or alternatively in 3 doses (once a week for 3 weeks) to groups of 6 mice and a separate cohort received an equivalent mass dose of unlabeled NM404 for comparison. Single doses were 50 or 500 μCi and the repeat dose group received a total of 3 weekly 50 μCi doses. Tumor growth was monitored for 10 weeks following final injection. […] New arms are now being initiated to cover the dose levels between the current ones in order to more accurately evaluate the therapeutic potential of this agent.
A549 (human non-small cell lung cancer, NSCLC, from ATCC) are maintained in Ham's F-12K media supplemented with 10% fetal bovine serum. […]. Animals are given free access to food and water, tumor growth and animal weight are monitored. […].
The tumor model used for this study was A549, a human non-small cell lung cancer, (NSCLC) obtained from ATCC (Manassas, Va.). The tumor cells are maintained in Ham's F-12K media supplemented with 10% fetal bovine serum. […]. Animals are given free access to food and water. Upon reaching 5-10 mm in tumor diameter, mice will be enrolled in the study.
A single intravenous injection of SF404A was performed at Day 0. For the control group, cold compound (C-NM404) has been injected. For treatment groups I-125-NM404 has been injected.
The study contained 5 groups; 4 treatment groups (n=6/group) and 1 control group (n=9). The iodine doses for the treatment groups were 50, 150, 250 and 500 μCi per mouse. The control group was dosed with an equivalent mass amount of C-NM404 (0 μCi).
Assessments were made until 10 weeks post-injection or until no animal in the control group is alive, whatever comes first. […]

[2] = tested on: SCC1 and SCC6 squamous cell tumors; assay: SCC1 and SCC6 xenografts in nude mice, single injection; assay type: in vivo
Excerpt: Due to its 60-day physical half-life and low energy 35 KeV photon emission, iodine-125 is suitable for imaging experiments in mice and rats. Iodine-125 also affords therapeutic characteristics. In one imaging experiment (FIG. 6), 2 nude mice were each inoculated with subcutaneous squamous cell lines SCC1 and SCC6 tumor cell implants on opposing flanks. SCC1 and SSC6 cells were used because one is radiosensitive relative to the other. After 14 days when the average tumor size was approaching 0.5 cm in diameter, one of the mice received 20 μCi of I-125-NM-404 and the other one receive unlabeled NM404 in an equal mass dose. The mouse receiving the unlabeled cold compound had to be euthanized 20 days after injection due to both tumors reaching the termination size limit as defined in the animal use protocol. […] This mouse never did reach terminal tumor size and the mouse was actually euthanized after 90 days in order to collect histology sections.

[3] = tested on: xenograft and spontaneous tumor models; assay: Imaging and tissue distribution across preclinical animal tumor models; assay type: in vivo
Pancreas c-myc/k-ras = assay: Tumor models examined with NM404 (Table 2); assay type: in vivo, Transgenic mouse; conditions: Ductal/acinar
Excerpt: (§1) NM404 has now been evaluated in 27 animal tumor models, including several lung, and it is clear that once the agent enters tumor cells, it reaches a metabolic dead end and becomes trapped. […] NM404 is also retained in spontaneous murine lung tumors (FIG. 13). Using ^125I-labeled NM404, the inventors have been able to image mammary and prostate tumors in mice in excess of 60 days. […] Imaging and tissue distribution studies performed in mouse models aimed at determining the uptake characteristics in a wide variety of tumor models are summarized in Table 2.
(§2) Although tumor retention can be explained by a lack of metabolic phospholipase enzymes in the tumor cell membranes, the exact mechanism of tumor cell uptake is unknown. […] The inventors are currently evaluating the selectivity of NM404 in a unique mouse tumor model developed at Wisconsin, wherein both preneoplastic hyperplasias and malignant adenocarcinomas form spontaneously in the mammary gland. […] If this initial observation is validated, then via genomic and or proteomic analysis the inventors may be able to identify a key genetic difference between malignant tumors and their non malignant predecessor cells. This could identify a completely new molecular therapeutic target that may be universal for all types of cancer.

Min Mouse Intestinal = assay: Tumor models examined with NM404 (Table 2); assay type: in vivo, Transgenic mouse; conditions: Adenocarcinoma
Excerpt: as §1, §2

TGFα Hepatoma = assay: Tumor models examined with NM404 (Table 2); assay type: in vivo, Transgenic mouse
Excerpt: as §1, §2

TRAMP prostate = assay: Tumor models examined with NM404 (Table 2); assay type: in vivo, Transgenic mouse; conditions: Adenocarcinoma
Excerpt: as §1, §2

Retinoblastoma = assay: Tumor models examined with NM404 (Table 2); assay type: in vivo, Transgenic mouse; conditions: Blastoma
Excerpt: as §1, §2

Cervical = assay: Tumor models examined with NM404 (Table 2); assay type: in vivo, Transgenic mouse; conditions: Adenocarcinoma
Excerpt: as §1, §2

[4] = tested on: prostate and A549 lung cancer tumors; assay: Comparative biodistribution in SCID mouse prostate and A549 lung cancer tumor models; conditions: in vivo
Description: In one such example in a rat mammary tumor model, tumor-to-normal tissue ratios reached a maximum at 96 hours with a tumor-to-blood ratio of 8.6 and tumor-to-muscle ratio of 20:1.
Extensive biodistribution data for the prototype agent ^125I-NM324 in several tumor models has previously been reported. […] For example, in a rat mammary tumor model, tumor-to-normal tissue ratios reached a maximum at 96 hours with a tumor-to-blood ratio of 8.6 and tumor-to-muscle ratio of 20:1. […] Comparative biodistribution data for NM324 and NM404 in SCID mice have been obtained in prostate and A549 lung cancer tumor models.

`C[N+](C)(C)CCOP(=O)([O-])OCCCCCCCCCCCCCCCCCCc1ccc([125I])cc1` [Compound I-125-NM404] was tested, and the “dose relationship of effect on tumor volume” value ([1]; 50-500 μCi) was “dose-linear effect”, the average tumor volume ([1]; 50 μCi (n = 4), week 0) was 198 mm^3 and the “treatment effect on tumor volume” value ([1]; 50 μCi single injection, 10 weeks) was “did not show any difference to control animals”. The average tumor volume ([1]; 50 μCi, week 1) was 599 mm^3, the average tumor volume ([1]; 50 μCi, week 2) was 691 mm^3 and the average tumor volume ([1]; 50 μCi, week 3) was 987 mm^3. The average tumor volume ([1]; 50 μCi, week 4) was 2283 mm^3, the average tumor volume ([1]; 50 μCi, week 5) was 3977 mm^3 and the average tumor volume ([1]; 50 μCi, week 6) was 4951 mm^3. The average tumor volume ([1]; 50 μCi, week 7) was 6999 mm^3, the average tumor volume ([1]; 50 μCi, week 8) was 8188 mm^3 and the average tumor volume ([1]; 50 μCi, week 9) was 9978 mm^3. For the same compound, the average tumor volume ([1]; 50 μCi, week 10) was 8342 mm^3, the tumor growth ([1]; 150 microCi, large tumors (>1 cm)) was “did not show any effects” and the tumor growth ([1]; 150 microCi, small tumors (<1 cm)) was “stunned tumor growth”. For the same compound, the average tumor volume ([1]; 150 μCi (n = 5), week 0) was 1699 mm^3, the average tumor volume ([1]; 150 μCi, week 1) was 1847 mm^3 and the average tumor volume ([1]; 150 μCi, week 2) was 2430 mm^3. The average tumor volume ([1]; 150 μCi, week 3) was 2758 mm^3, the average tumor volume ([1]; 150 μCi, week 4) was 4144 mm^3 and the average tumor volume ([1]; 150 μCi, week 5) was 4478 mm^3. It also gave an average tumor volume ([1]; 150 μCi, week 6) of 4668 mm^3, an average tumor volume ([1]; 150 μCi, week 7) of 4817 mm^3 and an average tumor volume ([1]; 150 μCi, week 8) of 6049 mm^3. The average tumor volume ([1]; 150 μCi, week 9) was 7780 mm^3, the average tumor volume ([1]; 150 μCi, week 10) was 6894 mm^3 and the average tumor volume ([1]; 250 μCi (n = 6), week 0) was 360 mm^3. For the same compound, the “treatment effect on tumor volume” value ([1]; 250 μCi single injection) was “substantial and prolonged treatment effect”, the “effect on the tumor” value ([1]; 250 μCi, 4 weeks following injection) was “causes central necrosis” and the average tumor volume ([1]; 250 μCi, week 2) was 756 mm^3. The average tumor volume ([1]; 250 μCi, week 3) was 821 mm^3, the average tumor volume ([1]; 500 μCi (n = 5), week 0) was 1041 mm^3 and the signs of toxicity ([1]; 500 μCi dose) was “none of the mice showed any signs of toxicity”. For the same compound, the “treatment effect on tumor volume” value ([1]; 500 μCi single injection) was “substantial and prolonged treatment effect”, the average tumor volume ([1]; 500 μCi, week 1) was 964 mm^3 and the average tumor volume ([1]; 500 μCi, week 2) was 1281 mm^3. For the same compound, the average tumor volume ([1]; 500 μCi, week 3) was 1110 mm^3, the average tumor volume ([1]; 500 μCi, week 4) was 1300 mm^3 and the average tumor volume ([1]; 500 μCi, week 5) was 1626 mm^3. For the same compound, the average tumor volume ([1]; 500 μCi, week 6) was 1735 mm^3, the average tumor volume ([1]; 500 μCi, week 7) was 1697 mm^3 and the tumor growth ([1]; pilot study, single 500 μCi dose) was “significant regression in tumor growth”. For the same compound, the tumor response ([2]; single injection 20 μCi, listed as 125I-NM404) was “regressed significantly; also recorded: regressed dramatically; also recorded: significantly reduced”, the “time over which tumors could be imaged” value ([3]; mammary and prostate tumors in mice) was > 60 days and the “period of prolonged tumor retention post-injection” value ([3]; mice) was 20 to 60 days.
In the case of `C[N+](C)(C)CCOP(=O)([O-])OCCCCCCCCCCCCCCCCCCc1ccc(I)cc1` [NM-404, 18-(4-iodophenyl)-octadecylphosphocholine], the “effect on tumor growth” value ([1]; 0 μCi, equivalent mass dose, 10 weeks) is reported as “no substantial effect on tumors growth”, the “therapy effect of fractionated dosing versus single dose” value ([1]; 3×50 micro-Ci versus single 150 micro-Ci) is reported as “produced the same therapy effect” and the average tumor volume ([1]; Control 0 μCi (n = 7), week 0) is reported as 1152 mm^3. It also gave an average tumor volume ([1]; Control 0 μCi, week 1) of 1289 mm^3, an average tumor volume ([1]; Control 0 μCi, week 2) of 1667 mm^3 and an average tumor volume ([1]; Control 0 μCi, week 3) of 2418 mm^3. The average tumor volume ([1]; Control 0 μCi, week 4) was 3169 mm^3, the average tumor volume ([1]; Control 0 μCi, week 5) was 3763 mm^3 and the average tumor volume ([1]; Control 0 μCi, week 6) was 4971 mm^3. It also gave an average tumor volume ([1]; Control 0 μCi, week 7) of 6207 mm^3, an average tumor volume ([1]; Control 0 μCi, week 8) of 6253 mm^3 and an average tumor volume ([1]; Control 0 μCi, week 9) of 7175 mm^3. The average tumor volume ([1]; Control 0 μCi, week 10) was 7068 mm^3, the “NM404 Tumor Localization” value (Pancreas c-myc/k-ras) was “Yes (Localization defined as >5% injected dose per gram tumor basis based on tissue distribution data)” and the “NM404 Tumor Localization” value (Min Mouse Intestinal) was “Yes (Localization defined as >5% injected dose per gram tumor basis based on tissue distribution data)”. The “NM404 Tumor Localization” value (TGFα Hepatoma) was “Yes (Localization defined as >5% injected dose per gram tumor basis based on tissue distribution data)”, the “NM404 Tumor Localization” value (TRAMP prostate) was “Yes (Localization defined as >5% injected dose per gram tumor basis based on tissue distribution data)” and the “NM404 Tumor Localization” value (Retinoblastoma) was “Yes (Localization defined as >5% injected dose per gram tumor basis based on tissue distribution data)”. The “NM404 Tumor Localization” value (Cervical) was “Yes (Localization defined as >5% injected dose per gram tumor basis based on tissue distribution data)”, the tumor uptake [4] was “exceeding 25 % of the injected dose” and the “time to euthanasia due to both tumors reaching termination size limit” value ([2]; unlabeled, equal mass dose) was 20 days. For the same compound, the “uptake of injected dose into the tumor tissue” value ([3]; in vivo) was 10-25%, the “localization in infectious / inflammatory sites” value ([3]; preclinical models) was “does not localize in infectious sites; also recorded: is not retained in inflammatory tissues” and the “retention in normal, premalignant or hyperplastic tissues” value ([3]; preclinical models) was “is not retained in normal, premalignant, or hyperplastic tissues”.
